# Assay results taken from US8299252B2, “Pyrazolopyridine and pyrrolopyridine multikinase inhibitors” (Chugai Seiyaku Kabushiki Kaisha, priority 2005, dated 2012).
# What was measured:
# [1] = test system: tube formation of human-derived vascular endothelial cells (HUVEC); test: Tube formation inhibition test (angiogenesis assay kit, KURABO); type: cell-based; details: 264 h, final concentration 6.4 nM, 11 days, read-out: Tube formation inhibition ratio (%)
# Method: The formed tubes were stained with a tube staining kit CD31 (KURABO). The stain image of each well was taken under a microscope, stored in an image file, and measured for the tube formation area using angiogenesis quantitative analysis software of KURABO. The inhibition ratio % of each test compound added to the well was calculated, provided that the ratio of the reference was 100%.
# [2] = test system: human umbilical vein endothelial cells (HUVEC), VEGF-dependent proliferation; test: VEGF-dependent HUVEC proliferation inhibition assay; type: cell-based; details: read-out: 50% proliferation inhibitory concentration (IC50 value) HUVEC (VEGF-dependent), 20 ng/mL of VEGF, 72 hours, WST-1
# Method: (§1) The compounds according to the present invention were measured for cancer cell proliferation inhibitory activity and human umbilical vein endothelial cell (HUVEC) proliferation inhibitory activity.
# (§2) Test compounds were serially diluted with dimethyl sulfoxide and then diluted 50 times with Ca^2+- and Mg^2+-free phosphate-buffered saline, and 20 μL of each of the resulting solution was dispensed into a 96-well plate. […] Each cell suspension contains approximately 3000 cells/180 μL. These cell suspensions were dispensed to the plate containing the test compounds at 180 μL/well and incubated in a 5% carbon dioxide gas incubator at 37° C. for 72 hours. 20 μL of WST-8 (HCT116, Dojin) or WST-1 (HUVEC, Roche Diagnostics) was added to each well, and absorbance at 450 nm (reference wavelength: 650 nm) was measured.
# [3] = target: T1, FLT3 intracellular domain protein (Homo sapiens, UniProt P36888); test: Flt3 enzyme inhibition test (HTRF); type: biochemical; details: phosphorylation of biotinylated peptide
# T1 sequence (P36888 564-993 limits assumed): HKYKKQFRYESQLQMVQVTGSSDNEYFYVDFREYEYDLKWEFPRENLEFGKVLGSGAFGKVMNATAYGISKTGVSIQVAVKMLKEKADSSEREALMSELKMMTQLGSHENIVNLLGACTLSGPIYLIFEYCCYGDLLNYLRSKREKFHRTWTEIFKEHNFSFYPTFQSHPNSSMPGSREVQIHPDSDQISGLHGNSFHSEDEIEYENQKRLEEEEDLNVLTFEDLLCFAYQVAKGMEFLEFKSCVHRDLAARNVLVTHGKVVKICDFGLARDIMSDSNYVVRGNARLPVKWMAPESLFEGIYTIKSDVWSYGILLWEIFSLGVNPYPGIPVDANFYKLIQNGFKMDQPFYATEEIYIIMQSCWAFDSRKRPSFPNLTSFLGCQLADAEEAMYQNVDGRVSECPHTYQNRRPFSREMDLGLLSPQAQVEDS
# Method: The FLT3 inhibitory activity was measured by the activity of FLT3 intracellular domain protein inhibiting for phosphorylation of a biotinylated peptide ([…]).
# [4] = test system: human colon cancer cell line HCT116 cells; test: Cell proliferation inhibitory activity, HCT116; type: cell-based; details: Homo sapiens, HCT-116, read-out: 50% proliferation inhibitory concentration (IC50 value) HCT116; HCT116, 72 hours, WST-8
# Method: as §1, §2
# [5] = test system: human umbilical vein endothelial cells (HUVEC), VEGF-independent proliferation; test: VEGF-independent HUVEC proliferation inhibition assay; type: cell-based; details: read-out: 50% proliferation inhibitory concentration (IC50 value) HUVEC (VEGF-independent), vascular endothelial cell growth-promoting agent and heparin, 72 hours, WST-1
# Method: as §1, §2
# [6] = test system: human colon cancer cell line HCT116 cells; test: Antitumor test, HCT116 transplanted subcutaneously in nude mice; type: in vivo, female Balb/c nude mouse; details: once a day for 12 days; for Tumor growth inhibition ratio (%): last administration day; for Decrease ratio in body weight (%): maximum decrease
# Method: A cell suspension of human colon cancer cell line HCT116 cells was prepared using Hanks's solution, and 5.0×10^6 cells thereof were transplanted subcutaneously into the flank of each female Balb/c nude mouse. Oral administration of the test compound (once a day for 12 days) was started when the transplanted tumor volume reached 200 to 250 mm^3. The tumor volume was calculated by the expression: 0.5×(minor axis)^2×(major axis). The tumor growth inhibition ratio of tumor growth of the test compound to tumor growth of the reference group was determined.
# [7] = Solubility in fasted state simulated intestinal fluid; type: physicochemical; details: pH 6.5, fassif, kinetic from dmso stock, fasted state simulated intestinal fluid (pH6.5), 37° C.
# Method: 2 μL of each dimethyl sulfoxide solutions containing test compounds were dispensed into wells of a 96-well plate, and 200 μL of fasted state simulated intestinal fluid (pH6.5) was added to each well. The plate was shaken at 37° C. for 20 hours. The solution was filtered through a membrane filter, and 101 μL of the filtrate was transferred to a UV plate, followed by addition of 100 μL of a solution mixture of ethanol:water=2:1 thereto. Separately, as a standard, 101 μL of a solution prepared by 2 μL of a dimethyl sulfoxide solution, 4 μL of dimethyl sulfoxide, 400 μL of ethanol, and 200 μL of water was transferred to a UV plate, and 100 μL of fasted state simulated intestinal fluid (pH6.5) was added thereto. The solubility was calculated by the following expression: Solubility=[(absorbance of test solution)−blank]/[(absorbance of standard solution)−blank]×165 μM (165 μM is the concentration of the standard solution) Composition of the fasted state simulated intestinal fluid (pH6.5)
# The composition was prepared in compliance with the description in E. Galia, et al., Pharm. Res. 1998, 698.
# Taurocholic acid (161 mg), L-α-phosphatidylcholine (59 mg), potassium dihydrogen phosphate (0.39 g), and potassium chloride (0.77 g) were added to about 90 mL of water. The resulting solution was adjusted to a pH of 6.5 with a sodium hydroxide aqueous solution and then diluted to a volume of 100 mL with water. The solution was filtered through a membrane filter.
# [8] = target: KDR intracellular domain protein (Homo sapiens, UniProt P35968); test: KDR enzyme inhibition assay (biotinylated peptide phosphorylation, HTRF); type: biochemical; details: phosphorylation of biotinylated peptide
# Chain of KDR intracellular domain protein (P35968 786-1356 limits assumed): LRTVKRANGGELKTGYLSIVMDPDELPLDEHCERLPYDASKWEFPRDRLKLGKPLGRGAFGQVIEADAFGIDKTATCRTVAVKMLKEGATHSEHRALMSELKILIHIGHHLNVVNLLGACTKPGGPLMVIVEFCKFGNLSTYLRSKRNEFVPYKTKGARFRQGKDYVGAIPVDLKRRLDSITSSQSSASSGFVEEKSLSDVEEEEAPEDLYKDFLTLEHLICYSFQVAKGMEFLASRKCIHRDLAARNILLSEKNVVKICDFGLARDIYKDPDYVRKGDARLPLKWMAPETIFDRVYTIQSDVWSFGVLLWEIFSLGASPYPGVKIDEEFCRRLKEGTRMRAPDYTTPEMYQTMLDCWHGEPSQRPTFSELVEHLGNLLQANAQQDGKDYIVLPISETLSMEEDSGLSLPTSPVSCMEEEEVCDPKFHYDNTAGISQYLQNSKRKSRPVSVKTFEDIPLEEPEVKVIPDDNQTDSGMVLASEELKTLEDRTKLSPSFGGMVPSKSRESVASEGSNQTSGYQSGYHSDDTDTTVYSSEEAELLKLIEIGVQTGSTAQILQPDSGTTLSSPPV
# Method: (§3) The compounds according to the present invention were measured for Raf-1 and KDR enzyme inhibitory activities.
# (§4) The Raf-1 inhibitory activity was measured by the activity of Raf-1 protein for inhibiting phosphorylation of MEK-1 protein having six histidine residues (His6) fused to the N-terminus thereof. […] The KDR inhibitory activity was measured by the activity of KDR intracellular domain protein for inhibiting phosphorylation of a biotinylated peptide ([…]).
# Raf-1 = Raf-1 (Homo sapiens, UniProt P04049); test: Raf-1 enzyme inhibition assay (MEK-1 phosphorylation, HTRF); type: biochemical; details: phosphorylation of His6-MEK-1
# Chain of Raf-1 (P04049 whole entry): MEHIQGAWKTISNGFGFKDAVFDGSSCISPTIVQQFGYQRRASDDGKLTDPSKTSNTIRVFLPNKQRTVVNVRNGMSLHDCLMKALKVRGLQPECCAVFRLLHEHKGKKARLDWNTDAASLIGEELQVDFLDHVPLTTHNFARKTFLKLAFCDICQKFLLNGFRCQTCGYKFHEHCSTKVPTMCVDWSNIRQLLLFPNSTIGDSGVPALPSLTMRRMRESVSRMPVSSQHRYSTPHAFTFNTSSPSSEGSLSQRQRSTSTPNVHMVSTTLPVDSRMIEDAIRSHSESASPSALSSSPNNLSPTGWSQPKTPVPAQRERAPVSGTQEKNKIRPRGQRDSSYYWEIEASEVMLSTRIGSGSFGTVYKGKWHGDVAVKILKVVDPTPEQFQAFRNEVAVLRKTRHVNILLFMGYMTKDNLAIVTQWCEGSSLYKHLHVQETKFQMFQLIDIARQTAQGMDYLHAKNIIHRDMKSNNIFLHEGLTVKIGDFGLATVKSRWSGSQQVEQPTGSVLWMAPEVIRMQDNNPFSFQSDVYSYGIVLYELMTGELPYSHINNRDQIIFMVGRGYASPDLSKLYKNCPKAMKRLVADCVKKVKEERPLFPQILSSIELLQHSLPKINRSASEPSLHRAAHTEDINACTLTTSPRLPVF
# Method: as §3, §4
# [9] = test system: choroidal neovascularization; test: Laser coagulation-induced murine choroidal neovascularization model; type: in vivo, C57BL6J mice; details: for Average FA score: once a day for three days
# Method: Laser coagulation was performed on two- to three-month-old C57BL6J mice (ten mice per group) by using a 408 nm semiconductor laser (DC-3000, Nidek). Both eyes were each irradiated at three positions with a spot size of 170 μm, an exposure time of 0.02 sec, and an output of 200 mW. The drug was orally administered once a day for three days beginning on the day of the laser coagulation. On the next day of the last administration, the mice were intravenously injected with 7 mg/kg of fluorescein. Five minutes after the injection, three fluorescent fundus images of each eye were taken (TRC-501X, Topcon) and stored in a CCD camera having 640×480 pixels as an image file. The total pixel brightness (0 to 1) in regions where fluorescein leakage was detected was used as an index (FA score) of choroidal neovascularization activity. The FA score was calculated by defining reference values such that the pixel brightness in a capillary region of a non-coagulated site is 0 and the pixel brightness on a main branch of the retinal blood vessel is 1.
# [10] = Pharmacokinetics test, oral administration; type: in vivo; details: female, Balb/c nude, mouse, 100 mg/kg, plasma
# Method: The compound according to the present invention and known Compound A were measured for pharmacokinetics. Each of the test compounds was orally administered to each female Balb/c nude mouse at a dose of 100 mg/kg, and concentrations of the compound in plasma 0.5, 2, 7, and 24 hours after the administration were quantitatively measured by LC-MS-MS.
IC50 [3] [nM],IC50 [4] [nM],solubility at 20 h [7] [µg/mL],Structure (SMILES),inhibition at 0.0064 µM [1] [%],IC50 [2] [nM],IC50 [5] [nM],further results
3.2,2100,–,"COCCOc1ccc(NC(=O)Nc2ccc(Oc3ccnc4[nH]ccc34)cc2)cc1C(F)(F)F [Compound 1, 1-[4-(2-methoxyethoxy)-3-(trifluoromethyl)phenyl]-3-[4-(1H-pyrrolo[2,3-b]pyridin-4-yloxy)phenyl]urea]",98,3.7,2600,–
–,–,–,"COCCOc1ccc(NC(=O)Nc2ccc(Oc3ccnc4[nH]ncc34)cc2)cc1C(F)(F)F [Compound 2, 1-[4-(2-Methoxyethoxy)-3-(trifluoromethyl)phenyl]-3-[4-(1H-pyrazolo[3,4-b]pyridin-4-yloxy)phenyl]urea]",82,–,–,–
6.9,3200,–,"O=C(Nc1ccc(Oc2ccnc3[nH]ccc23)cc1)Nc1ccc(OC2CCOCC2)c(C(F)(F)F)c1 [Compound 7, 1-[4-(1H-Pyrrolo[2,3-b]pyridin-4-yloxy)phenyl]-3-[4-(tetrahydropyran-4-yloxy)-3-(trifluoromethyl)phenyl]urea]",99,3.9,860,Tumor growth inhibition ratio (%) ([6]; 200 mg/kg oral): 97%; Decrease ratio in body weight (%) ([6]; 200 mg/kg oral): 3.6%
9.7,1600,14,"O=C(Nc1ccc(Oc2ccnc3[nH]ccc23)cc1)Nc1ccc(CCCF)c(C(F)(F)F)c1 [Compound 11, 1-[4-(3-Fluoropropyl)-3-(trifluoromethyl)phenyl]-3-[4-(1H-pyrrolo[2,3-b]pyridin-4-yloxy)phenyl]urea]",82,5.8,650,Tumor growth inhibition ratio (%) ([6]; 100 mg/kg oral): 89%; Decrease ratio in body weight (%) ([6]; 100 mg/kg oral): 7.8%
11,2300,–,"O=C(Nc1ccc(Oc2ccnc3[nH]ccc23)cc1)Nc1ccc(OCCF)c(C(F)(F)F)c1 [Compound 15, 1-[4-(2-Fluoroethoxy)-3-(trifluoromethyl)phenyl]-3-[4-(1H-pyrrolo[2,3-b]pyridin-4-yloxy)phenyl]urea]",100,4,1200,–
18,2400,16,"O=C(Nc1ccc(Oc2ccnc3[nH]ncc23)cc1)Nc1ccc(CCCF)c(C(F)(F)F)c1 [Compound 19, 1-[4-(3-Fluoro-propyl)-3-(trifluoromethyl)phenyl]-3-[4-(1H-pyrazolo[3,4-b]pyridin-4-yloxy)phenyl]urea]",98,1.8,300,Tumor growth inhibition ratio (%) ([6]; 100 mg/kg oral): 89%; Decrease ratio in body weight (%) ([6]; 100 mg/kg oral): 4.9%
–,1300,–,"O=C(Nc1ccc(Oc2ccnc3[nH]ccc23)cc1)Nc1ccc(CCF)c(C(F)(F)F)c1 [Compound 21, 1-[4-(2-Fluoroethyl)-3-(trifluoromethyl)phenyl]-3-[4-(1H-pyrrolo[2,3-b]pyridin-4-yloxy)phenyl]urea]",100,4.4,860,–
14,1300,16,"O=C(Nc1ccc(Oc2ccnc3[nH]ccc23)cc1)Nc1cc(CCF)cc(C(F)(F)F)c1 [Compound 22, 1-[3-(2-Fluoroethyl)-5-(trifluoromethyl)phenyl]-3-[4-(1H-pyrrolo[2,3-b]pyridin-4-yloxy)phenyl]urea]",96,5.4,630,IC50 [8]: 3.6 nM; IC50 (Raf-1): 23 nM
–,–,–,"O=C(Nc1ccc(Oc2ccnc3[nH]ccc23)cc1)Nc1ccc(Oc2ccc(F)cc2)c(C(F)(F)F)c1 [Compound 58, 1-[4-(4-Fluorophenoxy)-3-(trifluoromethyl)phenyl]-3-[4-(1H-pyrrolo[2,3-b]pyridin-4-yloxy)phenyl]urea]",–,–,–,inhibition of the angiogenesis (in words) ([9]; 50 mg/kg): significantly inhibited; Average FA score ([9]; 50 mg/kg oral): 7.127; Average FA score ([9]; 100 mg/kg oral): 6.664
–,–,6,"CNC(=O)c1cc(Oc2ccc(NC(=O)Nc3ccc(Cl)c(C(F)(F)F)c3)cc2)ccn1 [Compound A, BAY 43-9006, reference compound]",–,–,–,AUC [10]: 189 µg·h/mL; Cmax [10]: 19200 ng/mL; inhibition of the angiogenesis (in words) ([9]; 100 mg/kg): did not significantly inhibit; Average FA score ([9]; 100 mg/kg oral): 7.258
